Source: patent US20090226368A1, “Androgen-Receptor (AR) Ligands for Use in the Treatment and Diagnosis of AR-Related Pathologies” (priority 2005, published 2009)

Assays:
human AR recombinant = target: T1, human AR recombinant (Homo sapiens, UniProt P10275); assay: Relative Binding Affinity (RBA) assay, competitive binding with [3H]R1881; conditions: against [3H]R1881; R1881 standard = 100 by definition
T1 construct: purchased Pan-Vera
T1 sequence (P10275 1-920): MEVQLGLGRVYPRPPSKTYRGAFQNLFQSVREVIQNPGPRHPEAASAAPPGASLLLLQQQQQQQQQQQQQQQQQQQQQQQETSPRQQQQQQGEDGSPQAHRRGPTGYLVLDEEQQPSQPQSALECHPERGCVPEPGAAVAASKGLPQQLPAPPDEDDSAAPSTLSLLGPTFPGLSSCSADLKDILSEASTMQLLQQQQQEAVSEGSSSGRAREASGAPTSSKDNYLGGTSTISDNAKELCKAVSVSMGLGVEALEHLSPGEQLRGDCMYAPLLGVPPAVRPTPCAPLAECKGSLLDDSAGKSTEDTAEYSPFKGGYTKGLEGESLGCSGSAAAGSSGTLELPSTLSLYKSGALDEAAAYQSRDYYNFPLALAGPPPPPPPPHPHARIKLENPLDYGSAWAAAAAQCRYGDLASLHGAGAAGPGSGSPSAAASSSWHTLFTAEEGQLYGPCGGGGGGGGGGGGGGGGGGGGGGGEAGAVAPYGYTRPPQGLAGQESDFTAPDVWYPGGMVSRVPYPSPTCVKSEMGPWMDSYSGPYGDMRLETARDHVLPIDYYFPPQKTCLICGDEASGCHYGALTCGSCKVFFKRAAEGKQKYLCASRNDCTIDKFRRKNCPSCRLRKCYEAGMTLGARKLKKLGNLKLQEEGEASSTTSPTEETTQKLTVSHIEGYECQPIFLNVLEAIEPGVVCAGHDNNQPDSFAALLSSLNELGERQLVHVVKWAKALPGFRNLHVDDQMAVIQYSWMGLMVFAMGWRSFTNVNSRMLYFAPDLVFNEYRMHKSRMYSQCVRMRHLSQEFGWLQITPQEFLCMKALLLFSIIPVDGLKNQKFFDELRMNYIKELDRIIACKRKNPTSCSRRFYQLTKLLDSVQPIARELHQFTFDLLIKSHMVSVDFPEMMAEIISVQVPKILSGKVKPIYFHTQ
Description: In order to measure the affinity of the compounds to the A, the compounds of the general Formula I, referred herein also as the AR ligands were tested in RBA (Relative Binding Affinity) assay, which is a competitive binding assay with ^3H—R1881, a high affinity AR binding ligand.
RBA of androgens were measured against [^3H]R1881 in human AR recombinant (Pan-Vera). RBA values of the standards are 100 by definition (Brandes S. J., et al., Molecular Pharmacology; 1987; 32:391-400).

LNCap cell lines = assay: Antagonist test, PSA secretion measured by ELISA; format: cell-based; conditions: 48 and 72 hours; for PSA secretion in comparison to the control: given alone, testosterone 100 nM, compound 0.2, 0.5 and 1 μM
Description: PSA (Prostate Specific Antigen) is a secreted protein which is regulated by AR and is clinically used to detect prostate cancer in humans. LNCap cell lines were seeded in 24 wells (10^5 cells/well) in 10% FCS RPMI supplemented with sodium-pyruvate, pen/strep, L-glutamine, testosterone and insulin and grown for 24 hours. Then, the cells were washed 3 times with cold PBS and incubated in 10% FCS red-phenol-free RPMI. Testosterone (100 nM), ^18F-labeled (R)-Compound 3 (0.2, 0.5 and 1 μM) or both were added to the wells. Ethanol, which was used as the solvent of the testosterone and ^18F-labeled (R)-Compound 3, was added to the control wells in the same concentration.
At 48 and 72 hours, a sample of the medium was taken and the PSA levels were measured by ELISA.

[1] = Blood stability test, incubation in blood at 37° C.; format: in vitro ADME, human
Description: Blood was taken in EDTA tubes in order to prevent coagulation. 550 μl of ^18F-labeled (R)-Compound 3 was added to 1 ml of blood, and put in a rotating incubator at 37° C. The incubation times were 0, 30, 60 and 90 minutes. After the incubation, the blood was centrifuged for 5 minutes at 3000 rpm. The plasma was centrifuged again for 5 minutes at 10600 g and the pellet was discarded. 400 μl of the resulting supernatant was added to 800 μl of 30% THF/CH3CN, vortexed for 30 seconds and centrifuged for 5 minute at 10600 g. The supernatant was filtered through 0.45 μm filter and injected to HPLC column. The column was eluted with a mixture of acetate buffer (pH 3.8) and acetonitrile (35:65) at flow rate of 3 ml/min. The HPLC eluent was monitored sequentially for UV absorbance at 254 nm and radioactivity. Each sample was done in duplicate.
The same procedure was done with the ^11C-labeled (R)-Compound 3 after incubation of 0, 15, 30 and 45 minutes.
Blood stability, which was measured by phosphor-imager, was done in the same procedure. The filtered samples were loaded on reverse phase TLC plates and exposed to the phosphor-imager plates for 1 hour.
In the case of (R)-Compound 2, the incubation in the human blood sample was 0, 15, 30 and 45 minutes. The percent of extraction of the compound was around 40%.

[2] = blood, 37° C., incubation 0, 30, 60 and 90 minutes, HPLC

| Compound | RBA (%) (human AR recombinant) | further results |
| --- | --- | --- |
| CN(C)C[C@@](C)(O)C(=O)Nc1ccc(F)c(C(F)(F)F)c1 [(R)-Compound 3, (R)-3-Dimethyl-N-(4-fluoro-3-(trifluoromethyl)phenyl)-2-hydroxy-2-methyl-propanamide] | 0.029% | – |
| C[C@]12CC[C@H]3[C@@H](CCC4=CC(=O)CC[C@@]43C)[C@@H]1CC[C@@H]2O [Testosterone, reference compound] | – | PSA secretion in comparison to the control (LNCap cell lines): increased PSA secretion |
| CC(C)(O)C(=O)Nc1ccc(F)c(C(F)(F)F)c1 [(R)-F-2, N-(4-fluoro-3-(trifluoromethyl)phenyl)-2-hydroxy-2-methylpropanamide] | 0.027% | – |
| CN(C)C[C@@](C)(O)C(=O)Nc1ccc([18F])c(C(F)(F)F)c1 [^18F-labeled (R)-Compound 3] | – | metabolites in blood [1, 2]: no metabolites were evident; percent of extraction [1, 2]: 39-43%; PSA secretion in comparison to the control (LNCap cell lines): reduced the PSA secretion; testosterone-induced secretion of PSA (LNCap cell lines; together with testosterone 100 nM, 0.2, 0.5 and 1 μM, P<0.01): significantly reduced the testosterone-induced secretion of PSA |
| C[C@](O)(CBr)C(=O)Nc1ccc(F)c(C(F)(F)F)c1 [(R)-F-1, (R)-3-Bromo-N-(4-fluoro-3-(trifluoromethyl)phenyl)-2-hydroxy-2-methyl-propanamide] | 0.057% | – |
| CN(C)C[C@@](C)(O)C(=O)Nc1ccc([N+](=O)[O-])c(C(F)(F)F)c1 [(R)-Compound 2, (R)-3-Dimethyl-2-hydroxy-2-methyl-N-(4-nitro-3-trifluoromethyl-phenyl)-propionamide] | 0.036% | percent of extraction ([1]; human blood sample, incubation 0, 15, 30 and 45 minutes): around 40%; formation of metabolites ([1]; human blood sample, incubation 0, 15, 30 and 45 minutes, phosphor-imager): no metabolites were evident |
| C[C@]1(O)CC[C@H]2[C@@H]3CCC4=CC(=O)CCC4=C3C=C[C@@]21C [Compound R1881] | 100% | – |
| CN(C)C[C@@](C)(O)C(=O)Nc1ccc(C#N)c(C(F)(F)F)c1 [(R)-Compound 1, (R)-3-Dimethyl-N-(4-cyano-3-trifluoromethyl-phenyl)-2-hydroxy-2-methyl-propionamide] | 0.030% | – |
| CC(C)(O)C(=O)Nc1ccc([N+](=O)[O-])c(C(F)(F)F)c1 [Hydroxyflutamide] | 0.027% | – |
